{"source": "patent US10327423B2", "about": "“Antimicrobial compounds and compositions, and uses thereof” (Akeso Biomedical, Inc., priority 2014, dated 2019)", "key": {"[1]": {"test_system": "Enteropathogenic E. coli (EPEC) E2348/69", "assay": "Crystal violet assay of attachment to plastic wells", "assay_type": "cell-based, Escherichia coli", "details": "FeQ 100 μM; 48 hours at 37° C.", "experimental": "(§1) Enteropathogenic E. coli (EPEC) E2348/69 were grown in wells for 48 hours at 37° C. in the presence of FeQ (100 μM), and in the absence of FeQ (as control). After 48 hours, the wells were washed in order to remove suspended cells. Crystal violet was then added to each well. The wells were then washed to remove excess dye. A mixture of acetone/ethanol was then added to the wells to re-suspend any cells attached to the plastic surface of the wells, and dissolve any dye present. The presence of dye in each well was then quantified by measuring the O.D. at 570 nm.\nas §1, with “FeDOPA (10-250” for “FeQ (100”, “FeDOPA” for “FeQ”"}, "[2]": {"test_system": "bacterial flora present in the mouth", "assay": "Biofilm formation on extracted human teeth (CEPLAC staining)", "assay_type": "cell-based", "details": "FeQ 340 μM; 48 hours of culturing", "experimental": "Molar teeth were extracted from human patients, and mouth swabs taken from each patient to obtain samples of each patient's bacterial flora present in the mouth. The mouth swabs were cultured in the laboratory using LB media in order to grow bacterial populations ordinarily present in the mouth of each patient. The extracted teeth were washed and brushed extensively using PBS buffer and ethanol. Each patient's tooth was then placed in the bacterial culture prepared from that patient's bacterial flora sample, and cultured aerobically for 24 hours in LB media. The teeth were then stained with CEPLAC™ (Manx Healthcare Ltd, Warwick, UK), and washed three times with PBS-Tween (50 mL) to determine if biofilm had been formed on the teeth.\nAll teeth stained red indicating the presence of biofilm on the teeth after just 24 hours. The same teeth were then cleaned using PBS buffer and ethanol, and the procedure repeated except with 48 hours of culturing in the presence of FeQ (340 μM)."}, "[3]": {"test_system": "Psuedomonas aeruginosa (PAO1N)", "assay": "Growth (OD600) in LB with Amikacin, tolerance to antibiotic", "assay_type": "cell-based, Pseudomonas aeruginosa", "details": "34, 100, 200 and 340 μM of FeQ or FePhe; Amikacin 10 µg/ml; 17.5 hours at 37° C.", "experimental": "(§2) To investigate effects upon antibiotic resistance, a laboratory strain of Psuedomonas aeruginosa (PAO1N) and a mixed population of clinical isolates (PAO Mixed) were incubated in Luria-Bertani (LB) media alone, or with different concentrations (34 μM, 100 μM, 200 μM and 340 μM) of FeQ or FePhe.\n(§3) Each of the different media, bar one control, contained 10 µg/ml of the aminoglycoside antibiotic Amikacin.\n(§4) 10 μl of the bacterial strains were added into each well of a 96-well micro-titer plate, before 290 μl of the relevant media was added to wells. Each different condition was repeated in sextuplicate.\n(§5) The plate was incubated at 37° C. within a micro-titer plate reader for 17.5 hours, with the OD600 read every 30 minutes."}, "[4]": {"test_system": "mixed population of clinical isolates (PAO Mixed)", "assay": "Growth (OD600) in LB with Amikacin, tolerance to antibiotic", "assay_type": "cell-based, Pseudomonas aeruginosa", "details": "34, 100, 200 and 340 μM of FeQ or FePhe; Amikacin 10 µg/ml; 17.5 hours at 37° C.", "experimental": "as §2, §3, §4, §5"}, "[5]": {"test_system": "Staphylococcus epidermidis F1513", "assay": "Biofilm formation on plastic coated UV beads", "assay_type": "cell-based", "details": "different concentrations of Fe-QA; T=24 h", "experimental": "(§6) Bacteria (Enterococcus faecalis NCTC 12697, Staphylococcus epidermidis F1513 and Staphylococcus aureus ATCC 25923) were grown on Brain heart infusion (BHI) passaged to new medium either containing Fe-QA or alone. Growth suspensions were prepared at 0.0001 OD/ml and then allowed to grow at 37° C. under normal atmospheric conditions for 24 h in BHI with plastic coated UV beads (Lascells). […], 10 μl suspension was serially diluted 10 fold to 10-3, 10-4, 10-5, 10-6, 10-7, 10-8. For each dilution, 10 μl was spotted on BHI agar plates and colonies counted after 24 h. The beads were also removed washed in PBS before adding to 1 ml PBS. After vortex mixing, 10 μl of the cell suspension was serially diluted as above and cell counts carried out.\nThe effect of Fe-QA on biofilm formation by S. epidermidis F1513 was tested as described in the materials and methods of Example 1."}, "[6]": {"test_system": "H. pylori CCUG 17875", "assay": "H. pylori attachment to human gastric tissue sections (FITC-labelled bacteria)", "assay_type": "cell-based, Helicobacter pylori", "details": "Fe-QA 1 mM and 0.2 mM; 1 hour at room temperature", "experimental": "The ability of H. pylori CCUG 17875 to bind to samples of human gastric tissue in the presence of Lewis b antigen, Le^b, and two concentrations of Fe-QA (1 mM and 0.2 mM) was measured. Binding was quantified by fluorescence using H. pylori that had been labeled with fluorescein using FITC (fluorescein isothiocyanate), and human gastric tissue that was embedded in […]. The bacteria were suspended in blocking buffer (1% BSA in PBS) and applied to re-hydrated histo-sections of human gastric tissue. Binding was assessed microscopically, and quantified as the average number of bacteria bound to the tissue."}, "[7]": {"test_system": "H. pylori strain 17875", "assay": "Binding of I-125 labelled Le^b to H. pylori (bound/free)", "set-up": "species or system Helicobacter pylori", "details": "increasing Fe-QA concentration; pH 7.4", "experimental": "Binding of Le^b to H. pylori strain 17875 at pH 7.4 was assayed by labeling Le^b with radioactive iodine (1-125), mixing the radioactive antigen with H. pylori bacteria, pelletizing the bacteria using a centrifuge, and measuring the radioactivity in the pellet and in the supernatant. Any Le^b that is bound to the bacteria is quantified by the measurement of radioactivity in the pellet. The ratio of the radioactivity in the pellet to the supernatant therefore corresponds to the ratio of Le^b bound by the bacteria to that which remains unbound, expressed as bound/free."}, "[8]": {"test_system": "Pseudomonas aeruginosa (PAO-1 Clinical)", "assay": "Growth curve of antibiotic resistant clinical isolate with kanamycin and FeQ", "assay_type": "cell-based", "details": "kanamycin and FeQ added to growth media", "experimental": "The impact on the growth curve of an antibiotic resistant clinical isolate of Pseudomonas aeruginosa (PAO-1 Clinical) grown in the presence of kanamycin and FeQ versus the clinical isolate grown in the presence of (i) FeQ, (ii) kanamycin or (iii) without addition of FeQ or kanamycin (control) was assessed."}, "[9]": {"test_system": "Enterococcus faecalis NCTC 12697", "assay": "Biofilm formation on plastic coated UV beads", "assay_type": "cell-based", "details": "different concentrations of Fe-QA; T=24 h", "experimental": "as §6"}}}
{"smiles": "O=C1[O][Fe]23([O]C(=O)[C@]4(C[C@@H](O)[C@H](O)[C@H](O)C4)[O]2)([O]C(=O)[C@]2(C[C@@H](O)[C@H](O)[C@H](O)C2)[O]3)[O][C@@]12C[C@@H](O)[C@H](O)[C@H](O)C2", "note": "[FeQ, a complex of quinic acid with Fe III]", "values": [{"measurement": "attachment of EPEC cells to plastic well surface and biofilm formation (crystal violet, O.D. 570 nm)", "setting": "[1]", "result": "little or no attachment of bacterial cells to the surface and no biofilm formation"}, {"measurement": "biofilm on human teeth (red CEPLAC staining)", "setting": "[2]", "result": "no teeth stained red"}, {"measurement": "tolerance to the aminoglycoside Amikacin (OD600 growth)", "setting": "[3]", "result": "reducing tolerance"}, {"measurement": "tolerance to the aminoglycoside Amikacin (OD600 growth)", "setting": "[4]", "result": "reducing tolerance"}, {"measurement": "biofilm formation on plastic coated UV beads", "setting": "[5]", "result": "inhibited"}, {"measurement": "binding of H. pylori to human gastric tissue", "setting": "[6]", "result": "significantly reduced"}, {"measurement": "competitive inhibition of Le^b binding to H. pylori (bound/free Le^b)", "setting": "[7]", "result": "increasingly inhibits binding"}, {"measurement": "growth rate versus kanamycin or FeQ alone", "setting": "[8]", "result": "large reduction in the growth rate"}, {"measurement": "growth rate versus kanamycin or FeQ alone", "setting": "[8]; listed as Fe-QA", "result": "retarded"}, {"measurement": "biofilm formation on plastic coated UV beads", "setting": "[9]", "result": "inhibited"}]}
